According to US6667336B2, “GlyT-1 inhibitors” (NPS Allelix Corp., priority 2002, dated 2003):
“And” between values parts separate entries of the source, which are not always exact repeats. Equal values may be shown once. Marks after values point to notes of the source that are not given here.

System: male CD-1 mice
Assay: 5 day chronic oral dosing toxicity study in mice (clinical signs)
Type: in vivo
Set-up: key to Clinical signs (observation code), Day 1, 24 hours / Clinical signs (observation code), Day 2, 24 hours / Clinical signs (observation code), Day 3, 24 hours / Clinical signs (observation code), Day 4, 24 hours / Clinical signs (observation code), Day 5, 24 hours / Clinical signs (observation code), Day 1, 4 hours / Clinical signs (observation code), Day 2, 4 hours / Clinical signs (observation code), Day 3, 4 hours / Clinical signs (observation code), Day 4, 4 hours / Clinical signs (observation code), Day 5, 4 hours: 0: Appeared Normal; 1: Activity (inc./dec.); 2: Sedation/Lethargy; 3: Piloerection; 4: Stereotypy; 5: Soft Stool; 6: Chromodacryorrhea; 7: Epistaxis; 8: Cyanosis; 9: Flaccidity; 10: Respiration; 11: Hunched Posture; 12: Enophthalmia; 13: Exophthalmia; 14: Palpabral Ptosis; 15: Loss of Righting; 16: Chromaturia; 17: Salivation; 18: Lacrimation; 19: Miosis; 20: Mydriasis; 21: Rigidity; 22: Ataxia; 23: Tremors; 24: Convulsions; 25: Catalepsy; 26: Lateral Recumbency; 27: Death
Details: for Clinical signs (observation code), Day 1, 4 hours / Clinical signs (observation code), Day 1, 24 hours / Clinical signs (observation code), Day 2, 4 hours / Clinical signs (observation code), Day 2, 24 hours / Clinical signs (observation code), Day 3, 4 hours / Clinical signs (observation code), Day 3, 24 hours / Clinical signs (observation code), Day 4, 4 hours / Clinical signs (observation code), Day 4, 24 hours / Clinical signs (observation code), Day 5, 4 hours / Clinical signs (observation code), Day 5, 24 hours: 40 mg/kg/day PO, male CD-1 mice, one line per animal; for Toxicity profile in comparison (compounds of formula 1 vs other GlyT1 inhibitors of similar potency): 5 day oral dosing in mice, tables 1-18
Protocol: This example illustrated a 5 day chronic oral dosing toxicity study with GlyT1 inhibitors. […] Behavioral observations (clinical signs) and body weights were recorded daily for all compounds tested. Male CD-1 mice were purchased from Charles River Labs (Kingston, N.Y.). The animals weighed between 20-25 grams upon arrival. Animals were acclimatized in a temperature/humidity (72° ±5° F./50%±5%) controlled vivarium, with a common 12 hour light/dark cycle (Lights on 0700 hrs) for 5 days prior to test. All animals were allowed food (Purina Labdiete® Rodent chow # 5001) and water (supplied by Elizabethtown Water Company) ad libitum during the acclimation period and throughout the study. On the day prior to test initiation animals were randomly assigned to groups: All animals chosen for test weighed at least 20 grams and appeared in good condition. Each animal was dosed once daily for 5 days. Animals remained on site for a 3 day recovery period following the chronic dosing period.
A stock concentration of each test compound was prepared fresh on the day of study initiation. Aliquots were diluted to the needed concentrations for daily dosing. Stock solutions were kept in a refrigerator when not in use. Each compound was dissolved in a small amount of distilled water. One equivalent of sodium hydroxide (2 N) may have been added to aid in dissolution of each test agent. Vehicle was then added quantum sufficiat to give the final volume. Final volumes were adjusted to reflect percent free base when appropriate. The vehicle used in this experiment was Hydroxypropyl-β-cyclodextrine (HPCD) Acros, lot 011849601, dissolved in distilled water to form a 10% weight/volume concentration. The pH was adjusted, using sodium hydroxide (2 N), to equal that of the test agents (usually between 8 to 10). All prepared test compounds were either in solution, and clear, or in suspension, and slightly cloudy. Suspensions were mixed immediately prior to use.
All animals were administered either test compound or vehicle Per Os (PO) via 21 gauge gavage needles, in volumes of 10.0 ml/kg. Daily body weights were used to determine individual dosing volumes. All test compounds were weighed on a Denver Instruments analytical balance (model # A-250). Animals were weighed on a top loading Ohaus portable balance model # LS2000.
Animals were assessed for overt behaviors (clinical signs) immediately following administration of test agents, then again at 4 and 24 hours. Animals were assessed for 27 separate clinical signs:
Toxicity data obtained through the assay as described above is provided in Tables 1 to 14 for Compounds Gi to Gxiv inclusive. The animals were observed immediately following administration and again at 4 hours and 24 hours. Observations are reported using the code number from the following chart: […]

SMILES | Clinical signs (observation code), Day 1, 4 hours | Clinical signs (observation code), Day 1, 24 hours | Clinical signs (observation code), Day 2, 4 hours | Clinical signs (observation code), Day 2, 24 hours | Clinical signs (observation code), Day 3, 4 hours | Clinical signs (observation code), Day 3, 24 hours | Clinical signs (observation code), Day 4, 4 hours | Clinical signs (observation code), Day 4, 24 hours | Clinical signs (observation code), Day 5, 4 hours | Clinical signs (observation code), Day 5, 24 hours | Toxicity profile in comparison (compounds of formula 1 vs other GlyT1 inhibitors of similar potency)
CC(C)c1ccc(-c2ccc(/C(=C/CN(C)CC(=O)O)c3ccsc3)cc2)cc1 [Compound G(i), (Z)-N-(1-(4-(4-Isopropylphenyl)phenyl)-1-(3-thienyl)prop-1-en-3-yl)sarcosine] | 0 | 0 | 0 | 0 | 0 | 0 | 0 | 0 | 0 | 0 | 
CN(C/C=C(/c1ccc(-c2cccc(OC(F)(F)F)c2)cc1)c1ccsc1)CC(=O)O [Compound G(vii), (Z)-N-(1-(4-(3-(Trifluoromethoxy)phenyl)phenyl)-1-(3-thienyl)prop-1-en-3-yl)sarcosine] | 0 | 0 | 0 | 0 | 0 | 0 | 0 | 0 | 0 | 0 | 
COc1cccc(-c2ccc(/C(=C/CN(C)CC(=O)O)c3ccsc3)cc2)c1 [Compound G(v), (Z)-N-(1-(4-(3-Methoxyphenyl)phenyl)-1-(3-thienyl)prop-1-en-3-yl)sarcosine] | 0 | 0 | 0 | 0 | 0 | 0 | 0 | 0 | 0 | 0 | 
CN(C/C=C(\c1ccccc1)c1ccc(-c2ccsc2)cc1)CC(=O)O [Compound I, reference compound] |  | 0 |  | 0 |  | 0 |  | 0 |  |  | higher toxicity profile
CN(C/C=C(/c1ccc(-c2cccc(C(F)(F)F)c2)cc1)c1ccc(Cl)s1)CC(=O)O [Compound K, reference compound] | 1 and 0 (2×) | 27* |  |  |  |  |  |  |  |  | higher toxicity profile
CN(C/C=C(/c1ccc(-c2cccs2)cc1)c1ccsc1)CC(=O)O [Compound G(iii), (Z)-N-(1-(4-(2-Thienyl)phenyl)-1-(3-thienyl)prop-1-en-3-yl)sarcosine] | 0 | 0 | 0 | 0 | 0 | 0 | 14 and 0 | 0 | 0 | 0 | 
